Some test systems named below: OVCAR-8 ovarian; T-47D breast; BT-549 breast; SF-268 CNS; DLD-1 colon; DMS 114 small cell lung; DMS 273 small cell lung; KM20L2 colon; LXFL 529 NSCLC; NCI-H522 lung; RXF-631 renal; SNB-78 CNS; XF 498 CNS.
Common to all, as to assay: NCI anticancer screen, dose series, 48 h

Converted amounts (≈) assume the structure as drawn.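 1) Cells in 96-well plates. 2) Compound, 48 h, 5 concentrations. 3) Linear interpolation between surrounding doses. 4) Unreached endpoint = highest concentration. Abbreviation: GI50, concentration required for 50% inhibition of growth. TGI denotes the concentration required for complete inhibition of growth.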

Turning to `CCOC(=O)c1csc(NC(=O)C(C)N2CCCC2)n1` (stereo not drawn), the TGI in the test with OVCAR-8 ovarian and in the test on T-47D breast was more than 100 µM throughout.
As for `O=C1NN(C2=NNC3(C(=O)N2)c2ccccc2-c2ccccc23)C(c2ccccc2)=N/C1=C/c1ccc(Cl)cc1`, the GI50 in the test on BT-549 breast is 150 µg/mL (≈ 275 µM); in the test on OVCAR-8 ovarian, 78.1 µg/mL (≈ 143 µM); with SF-268 CNS, 61 µg/mL (≈ 112 µM); in the test on T-47D breast it was 13.4 µg/mL (≈ 24.6 µM). Moreover, the TGI in the test on BT-549 breast was more than 150 µg/mL; in the test with OVCAR-8 ovarian, more than 150 µg/mL; with SF-268 CNS it was more than 150 µg/mL; in the test with T-47D breast it was 149 µg/mL.
Take `CC(=O)NNc1nc(C)c(C(=O)NNC(=O)C(=O)Nc2ccc([N+](=O)[O-])cc2[N+](=O)[O-])s1`: the TGI with DLD-1 colon, with DMS 114 small cell lung, with DMS 273 small cell lung, with KM20L2 colon, with LXFL 529 NSCLC and with NCI-H522 lung was more than 100 µM in each case. Also, the TGI with OVCAR-8 ovarian, in the test with RXF-631 renal, with SF-268 CNS, in the test with SNB-78 CNS and with XF 498 CNS was more than 100 µM each time.
Take `COC(=O)C(Cc1cn(C(C)n2cc(CC(NC(C)=O)C(=O)OC)c3ccccc32)c2ccccc12)NC(C)=O` (stereo not drawn): the TGI in the test with BT-549 breast, in the test with NCI-H522 lung and with SF-268 CNS was more than 100 µM each time.
Take `CO/N=C1\CC(NC(=O)C(F)(F)F)c2ccsc21` (stereo not drawn): the TGI with BT-549 breast, with OVCAR-8 ovarian, with SF-268 CNS and with T-47D breast was more than 100 µM throughout.
For `COC(=O)CC(=O)OSc1ccccc1`, the TGI in the test with DLD-1 colon was found to be 48 µM; with DMS 114 small cell lung, 25.6 µM; with DMS 273 small cell lung, 41 µM; with KM20L2 colon, 42.2 µM; with NCI-H522 lung it was 12.8 µM; in the test with RXF-631 renal, 25 µM.
For `O=c1oc2ccccc2c(O)c1Cc1ccc(Cc2c(O)c3ccccc3oc2=O)cc1`, the TGI in the test with BT-549 breast, in the test on OVCAR-8 ovarian, with SF-268 CNS and in the test with T-47D breast was more than 100 µM each time.
